PubChem BioAssay AID1963854 (Molecular Pharmacology Branch, DTP, NCI, 2024)

Test system: 186277-243-T-J2-PDC complex spheroid viability
Test: Anticancer human tumor 186277-243-T-J2-PDC patient-derived colon adenocarcinoma cell line growth inhibition [POLQ]
Conditions: for IC50: curve of first compound; for viability, T/C: stronger effect = lower value
Summary of the method: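 Patient-derived tumour cells were co-cultured with HUVEC and mesenchymal stem cells as multicellular spheroids at 37 °C. They were treated with POLQ inhibitors (novobiocin, ART-558, RP6685) alone or combined with other agents. Top concentrations were at or near clinical Cmax (otherwise 10 microM; SN-38 at 1 microM), decreasing in half-log steps.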

[1] = second compound 0.0316 µM, first compound 0.0316 µM
[2] = second compound 0.0316 µM, first compound 0.1 µM
[3] = second compound 0.0316 µM, first compound 0.316 µM
[4] = second compound 0.0316 µM, first compound 1 µM
[5] = second compound 0.0316 µM, first compound 3.16 µM
[6] = second compound 0.0316 µM, first compound 10 µM
[7] = second compound 0.1 µM, first compound 0.0316 µM
[8] = second compound 0.1 µM, first compound 0.1 µM
[9] = second compound 0.1 µM, first compound 0.316 µM
[10] = second compound 0.1 µM, first compound 1 µM
[11] = second compound 0.1 µM, first compound 3.16 µM
[12] = second compound 0.1 µM, first compound 10 µM
[13] = second compound 0.316 µM, first compound 0.0316 µM
[14] = second compound 0.316 µM, first compound 0.1 µM
[15] = second compound 0.316 µM, first compound 0.316 µM
[16] = second compound 0.316 µM, first compound 1 µM
[17] = second compound 0.316 µM, first compound 3.16 µM
[18] = second compound 0.316 µM, first compound 10 µM
[19] = second compound 1 µM, first compound 0.0316 µM
[20] = second compound 1 µM, first compound 0.1 µM
[21] = second compound 1 µM, first compound 0.316 µM
[22] = second compound 1 µM, first compound 1 µM
[23] = second compound 1 µM, first compound 3.16 µM
[24] = second compound 1 µM, first compound 10 µM
[25] = second compound 3.16 µM, first compound 0.0316 µM
[26] = second compound 3.16 µM, first compound 0.1 µM
[27] = second compound 3.16 µM, first compound 0.316 µM
[28] = second compound 3.16 µM, first compound 1 µM
[29] = second compound 3.16 µM, first compound 3.16 µM
[30] = second compound 3.16 µM, first compound 10 µM
[31] = second compound 10 µM, first compound 0.0316 µM
[32] = second compound 10 µM, first compound 0.1 µM
[33] = second compound 10 µM, first compound 0.316 µM
[34] = second compound 10 µM, first compound 1 µM
[35] = second compound 10 µM, first compound 3.16 µM
[36] = second compound 10 µM, first compound 10 µM
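Further: spheroids exposed to compounds for seven days.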
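Wherever viability, T/C is given: 100% = DMSO vehicle control viability.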

## CCc1cc2c(N3CCc4c(cc(Cn5ccnc5)cc4-c4cn(C)nc4C(F)(F)F)C3=O)cc(C)nc2c(OC)n1 + Nc1ccc(C#CCN(C(=O)Cc2ncc(C(F)(F)F)cc2C(F)(F)F)c2ccc(F)cc2)nn1
Second compound 0.0316 µM
  IC50: > 10 µM
Second compound 0.1 µM
  IC50: > 10 µM
Second compound 0.316 µM
  IC50: > 10 µM
Second compound 1 µM
  IC50: > 10 µM
Second compound 3.16 µM
  IC50: > 10 µM
Second compound 10 µM
  IC50: > 10 µM
[1]
  viability, T/C: 97%
[2]
  viability, T/C: 104%
[3]
  viability, T/C: 96%
[4]
  viability, T/C: 117%
[5]
  viability, T/C: 119%
[6]
  viability, T/C: 95.8%
[7]
  viability, T/C: 95.3%
[8]
  viability, T/C: 89.4%
[9]
  viability, T/C: 96.9%
[10]
  viability, T/C: 108%
[11]
  viability, T/C: 124%
[12]
  viability, T/C: 97.2%
[13]
  viability, T/C: 107%
[14]
  viability, T/C: 89.2%
[15]
  viability, T/C: 96.6%
[16]
  viability, T/C: 101%
[17]
  viability, T/C: 89.7%
[18]
  viability, T/C: 86%
[19]
  viability, T/C: 95.1%
[20]
  viability, T/C: 106%
[21]
  viability, T/C: 101%
[22]
  viability, T/C: 98.7%
[23]
  viability, T/C: 114%
[24]
  viability, T/C: 90.6%
[25]
  viability, T/C: 104%
[26]
  viability, T/C: 88.4%
[27]
  viability, T/C: 91.8%
[28]
  viability, T/C: 87.6%
[29]
  viability, T/C: 109%
[30]
  viability, T/C: 87.3%
[31]
  viability, T/C: 102%
[32]
  viability, T/C: 95.5%
[33]
  viability, T/C: 94.1%
[34]
  viability, T/C: 106%
[35]
  viability, T/C: 95.6%
[36]
  viability, T/C: 76.2%

## CCc1c2c(nc3ccc(O)cc13)-c1cc3c(c(=O)n1C2)COC(=O)[C@]3(O)CC + Cc1cccc(N(C)C(=O)C2C(O)CCN2c2nc(C)cc(C(F)(F)F)c2C#N)c1
Second compound 0.0316 µM
  IC50: 0.00932 µM
Second compound 0.1 µM
  IC50: 0.0102 µM
Second compound 0.316 µM
  IC50: 0.0108 µM
Second compound 1 µM
  IC50: 0.0101 µM
Second compound 3.16 µM
  IC50: 0.00958 µM
Second compound 10 µM
  IC50: 0.00553 µM
Second compound 0.0316 µM, first compound 0.00316 µM
  viability, T/C: 69%
Second compound 0.0316 µM, first compound 0.01 µM
  viability, T/C: 48.5%
[1]
  viability, T/C: 27%
[2]
  viability, T/C: 12.7%
[3]
  viability, T/C: 10.5%
[4]
  viability, T/C: 7.92%
Second compound 0.1 µM, first compound 0.00316 µM
  viability, T/C: 74%
Second compound 0.1 µM, first compound 0.01 µM
  viability, T/C: 50.3%
[7]
  viability, T/C: 25.7%
[8]
  viability, T/C: 12.8%
[9]
  viability, T/C: 9.86%
[10]
  viability, T/C: 7.71%
Second compound 0.316 µM, first compound 0.00316 µM
  viability, T/C: 66.5%
Second compound 0.316 µM, first compound 0.01 µM
  viability, T/C: 51.6%
[13]
  viability, T/C: 27.9%
[14]
  viability, T/C: 13.8%
[15]
  viability, T/C: 9.55%
[16]
  viability, T/C: 8.34%
Second compound 1 µM, first compound 0.00316 µM
  viability, T/C: 73%
Second compound 1 µM, first compound 0.01 µM
  viability, T/C: 50.3%
[19]
  viability, T/C: 24%
[20]
  viability, T/C: 12.7%
[21]
  viability, T/C: 10.4%
[22]
  viability, T/C: 7.86%
Second compound 3.16 µM, first compound 0.00316 µM
  viability, T/C: 59.1%
Second compound 3.16 µM, first compound 0.01 µM
  viability, T/C: 50.1%
[25]
  viability, T/C: 24.3%
[26]
  viability, T/C: 12.1%
[27]
  viability, T/C: 9.42%
[28]
  viability, T/C: 6.8%
Second compound 10 µM, first compound 0.00316 µM
  viability, T/C: 58.6%
Second compound 10 µM, first compound 0.01 µM
  viability, T/C: 40.8%
[31]
  viability, T/C: 21%
[32]
  viability, T/C: 9.71%
[33]
  viability, T/C: 8.72%
[34]
  viability, T/C: 6.68%

## COc1cc2cc(C(=O)CCC(=O)O)sc2cc1OC + Nc1ccc(C#CCN(C(=O)Cc2ncc(C(F)(F)F)cc2C(F)(F)F)c2ccc(F)cc2)nn1
Second compound 0.0316 µM
  IC50: > 10 µM
Second compound 0.1 µM
  IC50: > 10 µM
Second compound 0.316 µM
  IC50: > 10 µM
Second compound 1 µM
  IC50: > 10 µM
Second compound 3.16 µM
  IC50: > 10 µM
Second compound 10 µM
  IC50: > 10 µM
[1]
  viability, T/C: 83.5%
[2]
  viability, T/C: 87.3%
[3]
  viability, T/C: 92.9%
[4]
  viability, T/C: 88.7%
[5]
  viability, T/C: 93.4%
[6]
  viability, T/C: 85.6%
[7]
  viability, T/C: 96.3%
[8]
  viability, T/C: 98.5%
[9]
  viability, T/C: 91%
[10]
  viability, T/C: 100%
[11]
  viability, T/C: 90.3%
[12]
  viability, T/C: 103%
[13]
  viability, T/C: 97.5%
[14]
  viability, T/C: 87.5%
[15]
  viability, T/C: 87%
[16]
  viability, T/C: 91.9%
[17]
  viability, T/C: 89.9%
[18]
  viability, T/C: 97.8%
[19]
  viability, T/C: 96.1%
[20]
  viability, T/C: 96.5%
[21]
  viability, T/C: 92.2%
[22]
  viability, T/C: 94.3%
[23]
  viability, T/C: 94.8%
[24]
  viability, T/C: 83.2%
[25]
  viability, T/C: 78.8%
[26]
  viability, T/C: 105%
[27]
  viability, T/C: 90%
[28]
  viability, T/C: 90.7%
[29]
  viability, T/C: 98.9%
[30]
  viability, T/C: 93.5%
[31]
  viability, T/C: 106%
[32]
  viability, T/C: 94.8%
[33]
  viability, T/C: 81.5%
[34]
  viability, T/C: 90%
[35]
  viability, T/C: 90.5%
[36]
  viability, T/C: 96.5%

## CCc1cc2c(N3CCc4c(cc(Cn5ccnc5)cc4-c4cn(C)nc4C(F)(F)F)C3=O)cc(C)nc2c(OC)n1 + Cc1cccc(N(C)C(=O)C2C(O)CCN2c2nc(C)cc(C(F)(F)F)c2C#N)c1
Second compound 0.0316 µM
  IC50: > 10 µM
Second compound 0.1 µM
  IC50: > 10 µM
Second compound 0.316 µM
  IC50: > 10 µM
Second compound 1 µM
  IC50: > 10 µM
Second compound 3.16 µM
  IC50: > 10 µM
Second compound 10 µM
  IC50: > 10 µM
[1]
  viability, T/C: 111%
[2]
  viability, T/C: 86.9%
[3]
  viability, T/C: 98.8%
[4]
  viability, T/C: 97.1%
[5]
  viability, T/C: 93.9%
[6]
  viability, T/C: 95.2%
[7]
  viability, T/C: 90.8%
[8]
  viability, T/C: 91.3%
[9]
  viability, T/C: 96.8%
[10]
  viability, T/C: 99.4%
[11]
  viability, T/C: 112%
[12]
  viability, T/C: 83.2%
[13]
  viability, T/C: 97%
[14]
  viability, T/C: 101%
[15]
  viability, T/C: 101%
[16]
  viability, T/C: 114%
[17]
  viability, T/C: 116%
[18]
  viability, T/C: 92.5%
[19]
  viability, T/C: 99.4%
[20]
  viability, T/C: 96.9%
[21]
  viability, T/C: 107%
[22]
  viability, T/C: 111%
[23]
  viability, T/C: 115%
[24]
  viability, T/C: 83.4%
[25]
  viability, T/C: 108%
[26]
  viability, T/C: 104%
[27]
  viability, T/C: 88.6%
[28]
  viability, T/C: 113%
[29]
  viability, T/C: 94.1%
[30]
  viability, T/C: 92.9%
[31]
  viability, T/C: 101%
[32]
  viability, T/C: 110%
[33]
  viability, T/C: 107%
[34]
  viability, T/C: 103%
[35]
  viability, T/C: 104%
[36]
  viability, T/C: 97.9%
